Source: ChEMBL document CHEMBL5356932, “Research and development of N,N'-diarylureas as anti-tumor agents” (RSC Med Chem, 2023)

What was measured:
[1] = target: Angiopoietin-1 receptor (Homo sapiens, UniProt Q02763); assay: Inhibition of TIE2 (unknown origin)
[2] = target: T1, Vascular endothelial growth factor receptor 2 (Homo sapiens, UniProt P35968); assay: Inhibition of human VEGFR
[3] = tested on: EA.hy 926; assay: Antiproliferative activity against human EA.hy 926 cells assessed as reduction in cell viability incubated for 48 hrs by MTT assay; format: functional, cell-based; conditions: EA.hy 926, 48 h
[4] = tested on: MCF7; assay: Antiproliferative activity against human MCF7 cells assessed as cell growth inhibition; format: functional, cell-based
[5] = tested on: MDA-MB-231; assay: Antiproliferative activity against human MDA-MB-231 cells assessed as cell growth inhibition; format: functional, cell-based
[6] = tested on: HUVEC; assay: Anti-angiogenesis activity in HUVEC cells; format: functional, cell-based; conditions: Homo sapiens
[7] = target: T1, Vascular endothelial growth factor receptor 2; assay: Inhibition of VEGFR2 in HUVEC cells; format: cell-based
[8] = Inhibition of angiogenesis in HUVEC cells assessed as reduction in capillary tube formation after 6 hrs by phase contrast microscopy; format: functional, cell-based; conditions: Homo sapiens
[9] = tested on: MCF7; assay: Cytotoxicity against human MCF7 cells assessed as reduction in cell viability incubated for 24 hrs by MTT assay; format: functional, cell-based; conditions: MCF7, 24 h
[10] = tested on: HepG2; assay: Cytotoxicity against human HepG2 cells assessed as reduction in cell viability incubated for 24 hrs by MTT assay; format: functional, cell-based; conditions: HepG2, 24 h
[11] = tested on: A549; assay: Antiproliferative activity against human A549 cells assessed as reduction in cell viability measured after 48 hrs by MTT assay; format: functional, cell-based; conditions: A549, 48 h
[12] = tested on: NCI-H1975; assay: Antiproliferative activity against human NCI-H1975 cells assessed as reduction in cell viability measured after 48 hrs by MTT assay; format: functional, cell-based; conditions: NCI-H1975, 48 h
[13] = tested on: HUVEC; assay: Antiproliferative activity against HUVEC cells assessed as reduction in cell viability measured after 48 hrs by MTT assay; format: functional, cell-based; conditions: Homo sapiens
[14] = Cytotoxicity against HUVEC cells assessed as reduction in cell viability and measured after 24 hrs by MTT assay; format: toxicity, cell-based; conditions: human

T1 sequence (P35968 whole entry): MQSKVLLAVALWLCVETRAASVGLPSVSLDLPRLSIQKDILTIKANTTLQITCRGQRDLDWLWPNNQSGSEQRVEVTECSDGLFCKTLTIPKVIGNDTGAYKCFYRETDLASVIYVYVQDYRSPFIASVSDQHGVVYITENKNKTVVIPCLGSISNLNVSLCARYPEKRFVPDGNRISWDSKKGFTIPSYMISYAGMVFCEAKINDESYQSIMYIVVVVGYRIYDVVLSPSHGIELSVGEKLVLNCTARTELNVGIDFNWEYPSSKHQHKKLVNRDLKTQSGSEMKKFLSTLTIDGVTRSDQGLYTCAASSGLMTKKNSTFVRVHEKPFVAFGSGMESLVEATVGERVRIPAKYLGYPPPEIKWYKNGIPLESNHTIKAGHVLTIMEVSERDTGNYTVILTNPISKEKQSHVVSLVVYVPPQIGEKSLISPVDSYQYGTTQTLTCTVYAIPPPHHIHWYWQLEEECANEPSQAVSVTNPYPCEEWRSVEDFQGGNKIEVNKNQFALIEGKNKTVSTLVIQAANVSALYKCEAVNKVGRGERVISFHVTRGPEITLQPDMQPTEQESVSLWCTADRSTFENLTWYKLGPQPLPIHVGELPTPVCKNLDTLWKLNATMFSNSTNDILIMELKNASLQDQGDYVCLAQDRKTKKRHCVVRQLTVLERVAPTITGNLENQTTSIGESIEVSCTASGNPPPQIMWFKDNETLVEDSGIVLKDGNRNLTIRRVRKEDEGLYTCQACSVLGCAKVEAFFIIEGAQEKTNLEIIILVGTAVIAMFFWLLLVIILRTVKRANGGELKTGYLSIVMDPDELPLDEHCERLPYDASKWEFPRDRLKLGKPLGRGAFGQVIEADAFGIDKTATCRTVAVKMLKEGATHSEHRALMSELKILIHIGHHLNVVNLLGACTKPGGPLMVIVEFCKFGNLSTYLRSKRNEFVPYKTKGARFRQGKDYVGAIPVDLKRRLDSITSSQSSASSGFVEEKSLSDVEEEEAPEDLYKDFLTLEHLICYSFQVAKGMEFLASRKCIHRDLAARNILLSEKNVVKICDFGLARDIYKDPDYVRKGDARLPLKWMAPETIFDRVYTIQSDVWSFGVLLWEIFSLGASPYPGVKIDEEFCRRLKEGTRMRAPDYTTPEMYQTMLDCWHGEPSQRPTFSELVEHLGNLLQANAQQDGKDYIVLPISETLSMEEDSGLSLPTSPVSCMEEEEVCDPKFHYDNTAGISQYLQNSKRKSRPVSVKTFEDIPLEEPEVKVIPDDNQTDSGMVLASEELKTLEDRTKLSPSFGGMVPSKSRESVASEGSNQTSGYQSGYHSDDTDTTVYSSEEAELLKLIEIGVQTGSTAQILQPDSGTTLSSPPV
Sequence of Angiopoietin-1 receptor (Q02763 whole entry): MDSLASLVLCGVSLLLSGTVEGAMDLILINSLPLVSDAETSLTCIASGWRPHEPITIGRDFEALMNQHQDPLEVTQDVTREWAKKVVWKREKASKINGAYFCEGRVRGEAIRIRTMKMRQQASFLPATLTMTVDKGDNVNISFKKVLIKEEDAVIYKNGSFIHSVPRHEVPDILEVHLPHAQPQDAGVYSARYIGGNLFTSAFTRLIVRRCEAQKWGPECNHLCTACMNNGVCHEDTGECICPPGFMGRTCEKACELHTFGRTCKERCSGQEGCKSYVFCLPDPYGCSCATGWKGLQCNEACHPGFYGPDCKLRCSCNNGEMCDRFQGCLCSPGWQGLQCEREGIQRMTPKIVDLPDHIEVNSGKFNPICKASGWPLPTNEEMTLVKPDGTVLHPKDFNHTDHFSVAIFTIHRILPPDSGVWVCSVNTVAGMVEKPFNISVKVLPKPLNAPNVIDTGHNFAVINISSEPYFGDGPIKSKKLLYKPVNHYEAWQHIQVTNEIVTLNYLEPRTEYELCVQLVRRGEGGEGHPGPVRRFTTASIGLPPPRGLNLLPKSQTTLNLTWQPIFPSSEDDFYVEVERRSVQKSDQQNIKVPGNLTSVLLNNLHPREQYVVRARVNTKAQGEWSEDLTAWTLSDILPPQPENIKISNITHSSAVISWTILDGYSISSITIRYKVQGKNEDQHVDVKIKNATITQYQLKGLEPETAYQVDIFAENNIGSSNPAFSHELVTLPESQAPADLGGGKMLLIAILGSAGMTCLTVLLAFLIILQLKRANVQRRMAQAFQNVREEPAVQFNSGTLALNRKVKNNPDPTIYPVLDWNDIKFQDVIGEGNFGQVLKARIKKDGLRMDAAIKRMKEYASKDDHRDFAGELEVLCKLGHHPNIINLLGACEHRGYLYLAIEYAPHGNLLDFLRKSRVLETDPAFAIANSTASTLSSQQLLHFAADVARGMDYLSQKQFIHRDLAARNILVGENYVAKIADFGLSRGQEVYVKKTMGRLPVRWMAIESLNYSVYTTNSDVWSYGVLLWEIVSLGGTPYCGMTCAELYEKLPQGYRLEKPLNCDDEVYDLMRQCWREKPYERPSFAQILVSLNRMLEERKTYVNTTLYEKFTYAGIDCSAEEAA

Work on `COC(=O)Nc1nc2cc(Oc3ccc(NC(=O)Nc4cc(F)ccc4C(F)(F)F)cc3)ccc2[nH]1` yielded an IC50 [1] of 0.0069 µM and an IC50 [2] of 3.5 µM.
`O=C(Nc1ccc(-c2cccc(NC(=O)C3CC3)n2)cc1)Nc1cccc(C(F)(F)F)c1` gave an IC50 [3] of 16.1 µM.
`O=C(Nc1cccc(Sc2ccnc3ccsc23)c1)Nc1cccc(C(F)(F)F)c1` showed an IC50 [4] of 1.2 µM and an IC50 [5] of 5 µM.
In the case of `Cc1nc(Nc2ccc(NC(=O)Nc3cccc(F)c3)cc2)c2nc(-c3ccccc3)sc2n1`, the IC50 [6] is reported as 5.3 µM, the IC50 [7] is reported as 73.2 µM and the IC50 [8] is reported as 5.3 µM.
`CNC(=O)c1cc(Oc2ccc(NC(=O)Nc3ccc(Cl)c(C(F)(F)F)c3)cc2)ccn1` [SORAFENIB] gave an IC50 [6] of 73.2 µM.
For `O=C(Nc1ccc(-c2cccc(NC(=O)C3CC3)n2)cc1)Nc1ccc(Cl)c(C(F)(F)F)c1`, the IC50 [3] was 14.5 µM.
Work on `CSc1cccc(NC(=O)Nc2ccc(Oc3ccc4[nH]c(=O)c(=O)[nH]c4c3)cc2C)c1` yielded an IC50 [9] of 14 µM and an IC50 [10] of 17 µM.
Molecule `O=C(Nc1ccc(OC(F)(F)F)cc1)Nc1ccc2nc(-c3ccccc3Cl)oc2c1` has an IC50 [11] of 7.61 µM, an IC50 [12] of 1.4 µM and an IC50 [13] of 8.46 µM.
Molecule `Cc1nc(Nc2ccc(NC(=O)Nc3ccc(F)c(Cl)c3)cc2)c2nc(-c3ccc(OCCCN4CCN(C)CC4)cc3)oc2n1` has an IC50 at 24 h [14] of 12.4 µM.
